# Reference: patent US6235284A, “Synthetic polypeptides belonging to the hepatitis C virus (HCV) and which can be used especially for detecting the latter” (Bio Merieux, priority 1992, dated 2001)
# Assays:
# [1] = tested on: anti-HCV antibodies (HCV-positive sera); experiment: ELISA detection of anti-HCV antibodies in HCV-positive sera with adsorbed peptides; type: binding, human
# In short: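 Peptides were adsorbed at 10 μg/ml for 2 h at 37 °C and blocked with 10% goat serum. Sera, first tested at 1/100, were incubated 1 h at 37 °C, detected with peroxidase anti-human IgG and OPD, and read at OD 492 nm (in places ×10^3), in duplicate.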
# [2] = tested on: anti-HCV antibodies binding onto peptide S42G; experiment: Inhibition test: inhibition of binding of anti-HCV antibodies onto peptide S42G by preincubation with peptides; set-up: species or system human; settings: inhibitor 0.1 mg/ml
# Description: To evaluate this hypothesis, inhibition tests, whose usefulness lies in the fact that they allow the formation of the antigen-antibody complex in liquid medium, were carried out, thus dispensing with possible artifacts linked to the adsorption of peptides onto a solid support.
# The inhibition experiments were carried out by reaction, in liquid phase, of the HCV sera with the peptides followed by reaction of the remaining antibodies with the peptide adsorbed onto the microplates. The inhibitory peptides are incubated at a concentration of 0.1 mg/ml with sera of appropriate dilution. The rest of the manipulation is identical to that described for the ELISA test.
# Peptide S18D (SEQ ID NO:11), or V22G (SEQ ID NO:12), or a mixture of both, is preincubated overnight in the presence of the serum to be tested. The antibodies can bind onto the corresponding sites.
substance,measurement,setting,value
V22G: a peptide of 24 amino acids covering sequence 22 to 45 of the CORE protein (VKFPGGGQIVGGVYLLPRRGPRLG),optical density at 492 nm,"[1]; Table 2, line 68, serum not named (below CTS), 1/100",2.500 OD
same,optical density at 492 nm,"[1]; Table 2, line 69, serum not named (below CTS), 1/1000",1.605 OD
same,optical density at 492 nm,"[1]; Table 2, line 70, serum not named (below CTS), 1/10000",0.255 OD
same,optical density at 492 nm,"[1]; Table 2, line 75, serum B4, 1/1000",1.214 OD
same,optical density at 492 nm,"[1]; Table 2, line 76, serum B4, 1/1000 (so in the source)",0.144 OD
same,optical density at 492 nm,"[1]; Table 2, serum B1, 1/100",1.225 OD
same,optical density at 492 nm,"[1]; Table 2, serum B2, 1/100",0.756 OD
same,optical density at 492 nm,"[1]; Table 2, serum B3, 1/100",0.329 OD
same,optical density at 492 nm,"[1]; Table 2, serum B4, 1/100",2.500 OD
same,optical density at 492 nm,"[1]; Table 2, serum B5, 1/100",0.863 OD
same,optical density at 492 nm,"[1]; Table 2, serum B6, 1/100",0.749 OD
same,optical density at 492 nm,"[1]; Table 2, serum B7, 1/100",2.102 OD
same,optical density at 492 nm,"[1]; Table 2, serum B8, 1/100",0.358 OD
same,optical density at 492 nm,"[1]; Table 2, serum B9, 1/100",2.082 OD
same,optical density at 492 nm,"[1]; Table 2, serum B10, 1/100",0.225 OD
same,optical density at 492 nm,"[1]; Table 2, serum B11, 1/100",0.616 OD
same,optical density at 492 nm,"[1]; Table 2, serum B12, 1/100",1.017 OD
same,optical density at 492 nm,"[1]; Table 2, serum B13, 1/100",0.304 OD
same,optical density at 492 nm,"[1]; Table 2, serum B14, 1/100",0.186 OD
same,optical density at 492 nm,"[1]; Table 2, serum B15, 1/100",0.954 OD
same,optical density at 492 nm,"[1]; Table 2, serum B16, 1/100",2.500 OD
same,optical density at 492 nm,"[1]; Table 2, serum CTS, 1/100",2.500 OD
same,optical density at 492 nm,"[1]; Table 2, serum CTS, 1/1000",1.155 OD
same,optical density at 492 nm,"[1]; Table 2, serum CTS, 1/10000",0.043 OD
same,optical density at 492 nm,"[1]; Table 2, serum P1, 1/100",0.426 OD
same,optical density at 492 nm,"[1]; Table 2, serum P2, 1/100",0.290 OD
same,optical density at 492 nm,"[1]; Table 2, serum P3, 1/100",0.503 OD
same,optical density at 492 nm,"[1]; Table 2, serum P4, 1/100",1.739 OD
same,optical density at 492 nm,"[1]; Table 2, serum P5, 1/100",2.500 OD
same,optical density at 492 nm,"[1]; Table 2, serum P5, 1/1000",2.293 OD
same,optical density at 492 nm,"[1]; Table 2, serum P5, 1/10000",0.578 OD
same,optical density at 492 nm,"[1]; Table 2, serum P6, 1/100",0.000 OD
same,optical density at 492 nm,"[1]; Table 2, serum P7, 1/100",2.500 OD
same,optical density at 492 nm,"[1]; Table 2, serum P7, 1/1000",1.590 OD
same,optical density at 492 nm,"[1]; Table 2, serum P7, 1/10000",0.237 OD
same,optical density at 492 nm,"[1]; Table 2, serum P8, 1/100",2.241 OD
same,optical density at 492 nm,"[1]; Table 2, serum P8, 1/1000",0.476 OD
same,optical density at 492 nm,"[1]; Table 2, serum P8, 1/10000",0.049 OD
same,optical density at 492 nm,"[1]; Table 2, serum P9, 1/100",0.008 OD
same,optical density at 492 nm,"[1]; Table 2, serum P10, 1/100",0.026 OD
same,optical density at 492 nm,"[1]; Table 2, serum P11, 1/100",2.500 OD
same,optical density at 492 nm,"[1]; Table 2, serum P12, 1/100",2.500 OD
same,optical density at 492 nm,"[1]; Table 2, serum P12, 1/1000",2.500 OD
same,optical density at 492 nm,"[1]; Table 2, serum P12, 1/10000",0.106 OD
same,optical density at 492 nm,"[1]; Table 2, serum P13, 1/100",0.013 OD
same,optical density at 492 nm,"[1]; Table 2, serum P14, 1/100",1.778 OD
same,optical density at 492 nm,"[1]; Table 2, serum P15, 1/100",1.810 OD
same,optical density at 492 nm,"[1]; Table 2, serum P16, 1/100",2.500 OD
same,optical density at 492 nm,"[1]; Table 2, serum P17, 1/100",1.832 OD
same,optical density at 492 nm,"[1]; Table 2, serum P18, 1/100",2.500 OD
same,optical density at 492 nm,"[1]; Table 2, serum P18, 1/1000",0.598 OD
same,optical density at 492 nm,"[1]; Table 2, serum P18, 1/10000",0.072 OD
same,optical density at 492 nm,"[1]; Table 2, serum P19, 1/100",0.010 OD
same,optical density at 492 nm,"[1]; Table 2, serum P20, 1/100",2.249 OD
same,optical density at 492 nm,"[1]; Table 2, serum P21, 1/100",2.272 OD
same,optical density at 492 nm,"[1]; Table 2, serum P22, 1/100",2.500 OD
same,optical density at 492 nm,"[1]; Table 2, serum P22, 1/1000",0.702 OD
same,optical density at 492 nm,"[1]; Table 2, serum P22, 1/10000",0.088 OD
same,optical density at 492 nm,"[1]; Table 2, serum P23, 1/100",0.015 OD
same,optical density at 492 nm,"[1]; Table 2, serum P24, 1/100",0.579 OD
same,optical density at 492 nm,"[1]; Table 2, serum P25, 1/100",2.252 OD
same,optical density at 492 nm,"[1]; Table 2, serum P25, 1/1000",0.695 OD
same,optical density at 492 nm,"[1]; Table 2, serum P25, 1/10000",0.089 OD
same,optical density at 492 nm,"[1]; Table 2, serum P26, 1/100",2.500 OD
same,optical density at 492 nm,"[1]; Table 2, serum P26, 1/1000",1.541 OD
same,optical density at 492 nm,"[1]; Table 2, serum P26, 1/10000",0.199 OD
same,optical density at 492 nm,"[1]; Table 2, serum P27, 1/100",1.600 OD
same,optical density at 492 nm,"[1]; Table 2, serum P28, 1/100",2.500 OD
same,optical density at 492 nm,"[1]; Table 2, serum P29, 1/100",0.005 OD
same,optical density at 492 nm,"[1]; Table 2, serum P30, 1/100",2.500 OD
same,optical density at 492 nm,"[1]; Table 2, serum P31, 1/100",2.500 OD
same,optical density at 492 nm,"[1]; Table 2, serum P31, 1/1000",2.500 OD
same,optical density at 492 nm,"[1]; Table 2, serum P31, 1/10000",0.847 OD
same,optical density at 492 nm,"[1]; Table 2, serum P32, 1/100",1.639 OD
same,optical density at 492 nm,"[1]; Table 2, serum P33, 1/100",1.987 OD
same,optical density at 492 nm,"[1]; Table 2, serum P34, 1/100",1.618 OD
same,optical density at 492 nm,"[1]; Table 2, serum P35, 1/100",1.504 OD
same,optical density at 492 nm,"[1]; Table 2, serum P36, 1/100",1.226 OD
same,optical density at 492 nm,"[1]; Table 2, serum P37, 1/100",2.500 OD
same,optical density at 492 nm,"[1]; Table 2, serum P37, 1/1000",0.865 OD
same,optical density at 492 nm,"[1]; Table 2, serum P37, 1/10000",0.128 OD
same,optical density at 492 nm,"[1]; Table 2, serum P38, 1/100",2.500 OD
same,optical density at 492 nm,"[1]; Table 2, serum P38, 1/1000",1.582 OD
same,optical density at 492 nm,"[1]; Table 2, serum P38, 1/10000",0.057 OD
same,optical density at 492 nm,"[1]; Table 2, serum P39, 1/100",1.835 OD
same,optical density at 492 nm,"[1]; Table 2, serum P40, 1/100",2.500 OD
same,optical density at 492 nm,"[1]; Table 2, serum P41, 1/100",2.218 OD
same,optical density at 492 nm,"[1]; Table 2, serum P42, 1/100",0.000 OD
same,reactivity towards HCV-positive sera,[1]; in words,carry one or more epitopes
same,inhibition,"[2]; serum B4, 1/10,000",83.6%
same,inhibition,"[2]; serum P5, 1/10,000",83.0%
same,inhibition,"[2]; serum P7, 1/10,000",81.0%
same,inhibition,"[2]; serum P8, 1/10,000",77.4%
same,inhibition,"[2]; serum P18, 1/10,000",48.0%
same,inhibition,"[2]; serum P22, 1/10,000",65.5%
same,inhibition,"[2]; serum P25, 1/10,000",71.8%
same,inhibition,"[2]; serum P31, 1/10,000",39.9%
same,inhibition,"[2]; serum P37, 1/10,000",88.7%
same,inhibition,"[2]; serum P38, 1/10,000",70.3%
